The source of these data is ChEMBL document CHEMBL5728204, “Spiro[3H-indole-3,2′-pyrrolidin]-2(1H)-one compounds and derivatives as MDM2-P53 inhibitors” (2021).

Structures are written as SMILES. Where “and” joins values, the source holds several entries; their conditions need not be identical. Equal values may be shown once.

This test in a line: A mix consisting of 20 nM GST-MDM2 protein (aa 23-117) and 20 nM biotinylated p53 wt peptide (encompassing aa 16-27 of wt human p53, amino acid sequence QETFSDLWKLLP-Ttds-Lys-Biotin, molecular weight 2132.56 g/mol) is prepared in assay buffer (50 mM Tris/HCl pH 7.2; 120 mM NaCl; 0.1% bovine serum albumin (BSA); 5 mM dithiothreitol (DTT); 1 mM ethylenediaminetetraacetic acid (EDTA); 0.01% Tween 20). 30 μL of the mix is added to the compound dilutions and incubated for 15 min at rt while gently shaking the plate at 300 rounds per minute (rpm). Subsequently, 15 μL of premixed AlphaLISA Glutathione Acceptor Beads and AlphaScreen Streptavidin Donor Beads from PerkinElmer (in assay buffer at a concentration of 10 μg/mL each) are added and the samples are incubated for 30 min at rt in the dark (shaking 300 rpm). Afterwards, the signal is measured in a PerkinElmer Envision HTS Multilabel Reader using the AlphaScreen protocol from PerkinElmer.Each plate contains negative controls where biotinylated p53-peptide and GST-MDM2 are left out and replaced by assay buffer. Negative control values are entered as low basis value when using the software GraphPad Prism for calculations.
Broadly, the IC50 is the concentration that gives 50% inhibition. With `CC(C1CC1)N1[C@H]2CCn3c(nc4cc(S(C)(=O)=O)ccc43)[C@H]2[C@H](c2cccc(Cl)c2F)[C@]12C(=O)Nc1cc(Cl)ccc12` (some centres undefined), the IC50 was 12 nM and 7 nM. Regarding `COC(=O)c1ccc2c(c1)nc1n2CC[C@H]2[C@@H]1[C@H](c1cccc(Cl)c1F)[C@]1(C(=O)Nc3cc(Cl)ccc31)N2CC1CC1`, the half-inhibitory concentration (IC50) was 3 nM. `CS(=O)(=O)OCCN1[C@H]2CCn3c(nc4cc(C(=O)O)ccc43)[C@H]2[C@H](c2cccc(Cl)c2F)[C@]12C(=O)Nc1cc(Cl)ccc12`: the IC50 was 58 nM.

For `CC(=O)Nc1ccc2c(c1)nc1n2CC[C@H]2[C@@H]1[C@H](c1cccc(Cl)c1F)[C@]1(C(=O)Nc3cc(Cl)ccc31)N2C(C)C1CC1` (some centres undefined), the IC50 was 15 nM.
